Numbered stars: 1 amine (or outer) side, 2 acyl side, 3 side chain; on linkers, the order of the positions; unused ones are H or OH. Square brackets hold non-standard residues; d marks the D form. Side chains are listed from the residue outwards. Peptide text beside a SMILES is read from it. * marks the point of attachment. C20 diacid = O=C(O)CCCCCCCCCCCCCCCCCCC(=O)*; γGlu = O=C(O)[C@H](CCC(=O)[*:2])N[*:1]; αMeF = C[C@](N)(Cc1ccccc1)C(=O)O; αMeL = CC(C)C[C@](C)(N)C(=O)O; AEEA = NCCOCCOCC(=O)O; Aib = CC(C)(N)C(=O)O

One test concerns the target T1, human Gcg receptor (Homo sapiens, UniProt P47871).
T1 construct: expressed in transfected cells; crude membranes
Briefly: [125I]-Glucagon binding (SPA), human Gcg receptor. The following applies: read-out: hGLcgR Ki, nM (SEM, n). The procedure, abridged:
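Crude membranes from cells expressing the receptor, prepared by hypotonic lysis in 50 mM Tris HCl pH 7.5 with protease inhibitors, homogenization and differential centrifugation, were used in a WGA-bead SPA. Binding buffer: 25 mM HEPES pH 7.4, 2.5 mM CaCl2, 1 mM MgCl2, bacitracin, Tween-20.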

For test [1], the target named is human GLP-1 receptor (GLP-1R) (Homo sapiens, UniProt P43220). The test is described as follows: cAMP pharmacological functional assay in presence of casein, hGLP-1R. The class given is cell-based. The settings on record: HEK293 cells expressing hGLP-1R, 0.1% Casein, geometric mean; read-out: hGLP1R cAMP Rel EC50 nM (SEM, n).
In a further test the target is human GLP-1R (Homo sapiens, UniProt P43220). Briefly: [125I]-GLP-1 binding (SPA), human GLP-1 receptor. On the set-up: expressed in transfected cells; crude membranes. The settings on record: read-out: hGLP1R Ki, (nM) (SEM, n). Put shortly: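 Ki values are geometric means with SEM over independent replicates on different days, derived from IC50s fitted by four-parameter nonlinear regression. The assay used crude cell membranes in HEPES buffer, pH 7.4, containing CaCl2, MgCl2, bacitracin and TWEEN-20.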

The target in a further test is T2, human GIP receptor (Homo sapiens, UniProt P48546).
T2 construct: expressed in transfected cells; crude membranes
T2 sequence (P48546 22-466): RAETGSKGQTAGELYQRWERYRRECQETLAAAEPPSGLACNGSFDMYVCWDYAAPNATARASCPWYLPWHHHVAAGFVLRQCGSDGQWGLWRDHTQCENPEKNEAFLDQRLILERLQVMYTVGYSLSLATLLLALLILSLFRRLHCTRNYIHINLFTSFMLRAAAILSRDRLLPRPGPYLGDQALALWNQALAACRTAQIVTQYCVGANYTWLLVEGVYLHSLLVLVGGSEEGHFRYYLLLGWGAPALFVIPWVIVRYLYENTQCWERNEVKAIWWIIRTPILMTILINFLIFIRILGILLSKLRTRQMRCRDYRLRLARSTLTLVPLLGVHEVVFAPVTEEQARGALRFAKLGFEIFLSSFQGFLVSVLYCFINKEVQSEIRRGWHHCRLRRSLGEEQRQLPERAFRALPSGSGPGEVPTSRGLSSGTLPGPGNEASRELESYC
Briefly: [125I]-GIP binding (SPA), human GIP receptor. The settings on record: read-out: hGIPR Ki, nM (SEM, n).

The target in test [2] is T3, gastric inhibitory peptide receptor (GIPR) (Homo sapiens, UniProt P48546).
T3 sequence (P48546 22-466): T2 sequence (P48546 22-466)
Briefly: cAMP pharmacological functional assay in presence of casein, hGIPR. The class given is cell-based. The settings on record: HEK293 cells expressing hGIPR, 0.1% Casein, geometric mean; read-out: hGIPR cAMP Rel EC50 nM (SEM, n).

T1 sequence (P47871 26-477): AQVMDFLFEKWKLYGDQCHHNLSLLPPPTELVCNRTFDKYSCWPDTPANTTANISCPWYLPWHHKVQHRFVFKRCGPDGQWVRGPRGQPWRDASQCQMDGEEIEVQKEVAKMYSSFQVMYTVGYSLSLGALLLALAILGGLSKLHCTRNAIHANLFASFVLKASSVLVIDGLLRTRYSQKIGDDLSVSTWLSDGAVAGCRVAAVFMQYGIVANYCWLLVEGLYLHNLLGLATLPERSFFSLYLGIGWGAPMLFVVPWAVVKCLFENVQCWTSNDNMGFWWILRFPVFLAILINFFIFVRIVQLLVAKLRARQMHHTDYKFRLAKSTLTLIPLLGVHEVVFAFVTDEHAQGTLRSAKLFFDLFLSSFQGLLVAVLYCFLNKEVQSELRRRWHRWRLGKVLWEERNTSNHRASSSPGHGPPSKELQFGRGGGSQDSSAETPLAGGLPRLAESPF
Sequence of human GLP-1 receptor (GLP-1R) (P43220 24-463): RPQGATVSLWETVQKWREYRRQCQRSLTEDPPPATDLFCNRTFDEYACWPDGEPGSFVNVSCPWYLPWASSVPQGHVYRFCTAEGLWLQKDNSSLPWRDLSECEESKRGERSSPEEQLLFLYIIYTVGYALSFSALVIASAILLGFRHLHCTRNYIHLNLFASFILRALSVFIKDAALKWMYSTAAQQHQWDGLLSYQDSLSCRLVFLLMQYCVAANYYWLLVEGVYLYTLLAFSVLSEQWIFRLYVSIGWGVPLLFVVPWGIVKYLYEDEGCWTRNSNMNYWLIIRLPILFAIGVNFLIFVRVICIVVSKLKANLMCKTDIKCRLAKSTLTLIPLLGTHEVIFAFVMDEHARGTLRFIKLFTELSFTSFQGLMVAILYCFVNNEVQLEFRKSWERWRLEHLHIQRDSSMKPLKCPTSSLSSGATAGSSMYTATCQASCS
Sequence of human GLP-1R (P43220 24-463): as above

`CC[C@H](C)[C@H](NC(=O)[C@H](CC(C)C)NC(=O)[C@H](Cc1ccc(O)cc1)NC(=O)[C@H](CCC(=O)O)NC(=O)[C@@H](NC(=O)[C@H](Cc1ccccc1)NC(=O)[C@H](CO)NC(=O)C(C)(C)NC(=O)[C@H](CCC(N)=O)NC(=O)[C@H](C)NC(=O)[C@H](CCCCNC(=O)COCCOCCNC(=O)COCCOCCNC(=O)CC[C@H](NC(=O)CCCCCCCCCCCCCCCCCCC(=O)O)C(=O)O)NC(=O)[C@H](CCCCN)NC(=O)[C@H](CC(=O)O)NC(=O)[C@H](CC(C)C)NC(=O)[C@](C)(CC(C)C)NC(=O)[C@@H](NC(=O)[C@H](CO)NC(=O)[C@H](Cc1ccc(O)cc1)NC(=O)[C@H](CC(=O)O)NC(=O)[C@H](CO)NC(=O)[C@@H](NC(=O)[C@](C)(Cc1ccccc1)NC(=O)[C@@H](NC(=O)CNC(=O)[C@H](CCC(=O)O)NC(=O)C(C)(C)NC(=O)[C@@H](N)Cc1ccc(O)cc1)[C@@H](C)O)[C@@H](C)O)[C@@H](C)CC)[C@@H](C)CC)C(=O)N[C@@H](CCC(=O)O)C(=O)NCC(=O)NCC(=O)N1CCC[C@H]1C(=O)N[C@@H](CO)C(=O)N[C@@H](CO)C(=O)NCC(=O)N[C@@H](C)C(=O)N1CCC[C@H]1C(=O)N1CCC[C@H]1C(=O)N1CCC[C@H]1C(=O)N[C@@H](CO)C(N)=O` [Example 138] (H-Y[Aib]EGT[αMeF]TSDYSI[αMeL]LDKK([AEEA-AEEA-γGlu-C20 diacid])AQ[Aib]SFIEYLIEGGPSSGAPPPS-NH2; N-terminus assumed): the Ki – broadly, a measure of affinity in units of concentration, obtained from inhibition or displacement – amounted to 61.2 nM on human Gcg receptor, 0.926 nM at human GLP-1R and 0.0295 nM at human GIP receptor. For the same compound, the EC50 (in general, the concentration giving half of the maximal effect) in test [1] was found to be 0.0471 nM; in test [2], 0.0581 nM.

Consider `CC[C@H](C)[C@H](NC(=O)[C@H](CC(C)C)NC(=O)[C@H](Cc1ccc(O)cc1)NC(=O)[C@H](CCC(=O)O)NC(=O)[C@@H](NC(=O)[C@H](Cc1ccccc1)NC(=O)[C@H](CC(=O)O)NC(=O)C(C)(C)NC(=O)[C@H](CCC(N)=O)NC(=O)[C@H](C)NC(=O)[C@H](CCCCNC(=O)COCCOCCNC(=O)COCCOCCNC(=O)CC[C@H](NC(=O)CCCCCCCCCCCCCCCCCCC(=O)O)C(=O)O)NC(=O)[C@H](CCCCN)NC(=O)[C@H](CC(=O)O)NC(=O)[C@H](CC(C)C)NC(=O)[C@](C)(CC(C)C)NC(=O)[C@@H](NC(=O)[C@H](CO)NC(=O)[C@H](Cc1ccc(O)cc1)NC(=O)[C@H](CC(=O)O)NC(=O)[C@H](CO)NC(=O)[C@@H](NC(=O)[C@](C)(Cc1ccccc1)NC(=O)[C@@H](NC(=O)CNC(=O)[C@H](CCC(=O)O)NC(=O)C(C)(C)NC(=O)[C@@H](N)Cc1ccc(O)cc1)[C@@H](C)O)[C@@H](C)O)[C@@H](C)CC)[C@@H](C)CC)C(=O)N[C@@H](CCC(=O)O)C(=O)NCC(=O)NCC(=O)N1CCC[C@H]1C(=O)N[C@@H](CO)C(=O)N[C@@H](CO)C(=O)NCC(=O)N[C@@H](C)C(=O)N1CCC[C@H]1C(=O)N1CCC[C@H]1C(=O)N1CCC[C@H]1C(=O)N[C@@H](CO)C(N)=O` [Example 140] (H-Y[Aib]EGT[αMeF]TSDYSI[αMeL]LDKK([AEEA-AEEA-γGlu-C20 diacid])AQ[Aib]DFIEYLIEGGPSSGAPPPS-NH2), for which the inhibition constant Ki stood at 175 nM on human Gcg receptor, 1.46 nM at human GLP-1R and 0.0474 nM at human GIP receptor. In addition, the concentration giving a half-maximal response (EC50) came out at 0.0424 nM in test [1] and 0.0349 nM in test [2].

For `CC[C@H](C)[C@H](NC(=O)[C@H](CC(C)C)NC(=O)[C@H](Cc1ccc(O)cc1)NC(=O)[C@H](CCC(=O)O)NC(=O)[C@@H](NC(=O)[C@H](Cc1ccccc1)NC(=O)[C@H](Cc1c[nH]cn1)NC(=O)C(C)(C)NC(=O)[C@H](CCC(N)=O)NC(=O)[C@H](C)NC(=O)[C@H](CCCCNC(=O)COCCOCCNC(=O)COCCOCCNC(=O)CC[C@H](NC(=O)CCCCCCCCCCCCCCCCCCC(=O)O)C(=O)O)NC(=O)[C@H](CCCCN)NC(=O)[C@H](CC(=O)O)NC(=O)[C@H](CC(C)C)NC(=O)[C@](C)(CC(C)C)NC(=O)[C@@H](NC(=O)[C@H](CO)NC(=O)[C@H](Cc1ccc(O)cc1)NC(=O)[C@H](CC(=O)O)NC(=O)[C@H](CO)NC(=O)[C@@H](NC(=O)[C@](C)(Cc1ccccc1)NC(=O)[C@@H](NC(=O)CNC(=O)[C@H](CCC(=O)O)NC(=O)C(C)(C)NC(=O)[C@@H](N)Cc1ccc(O)cc1)[C@@H](C)O)[C@@H](C)O)[C@@H](C)CC)[C@@H](C)CC)C(=O)N[C@@H](CCC(=O)O)C(=O)NCC(=O)NCC(=O)N1CCC[C@H]1C(=O)N[C@@H](CO)C(=O)N[C@@H](CO)C(=O)NCC(=O)N[C@@H](C)C(=O)N1CCC[C@H]1C(=O)N1CCC[C@H]1C(=O)N1CCC[C@H]1C(=O)N[C@@H](CO)C(N)=O` [Example 142] (H-Y[Aib]EGT[αMeF]TSDYSI[αMeL]LDKK([AEEA-AEEA-γGlu-C20 diacid])AQ[Aib]HFIEYLIEGGPSSGAPPPS-NH2; N-terminus assumed), the Ki on human Gcg receptor came to 53.1 nM; on human GLP-1R, 1.06 nM; on human GIP receptor, 0.0275 nM. Also, the figures for the EC50 in test [1] and in test [2] were 0.0426 nM and 0.0489 nM, respectively.

Take `CC[C@H](C)[C@H](NC(=O)[C@H](CC(C)C)NC(=O)[C@H](Cc1ccc(O)cc1)NC(=O)[C@H](CCC(=O)O)NC(=O)[C@@H](NC(=O)[C@H](Cc1ccccc1)NC(=O)C(C)(C)NC(=O)C(C)(C)NC(=O)[C@H](CCC(N)=O)NC(=O)[C@H](C)NC(=O)[C@H](CCCCNC(=O)COCCOCCNC(=O)COCCOCCNC(=O)CC[C@H](NC(=O)CCCCCCCCCCCCCCCCCCC(=O)O)C(=O)O)NC(=O)[C@H](CCCCN)NC(=O)[C@H](CC(=O)O)NC(=O)[C@H](CC(C)C)NC(=O)[C@](C)(CC(C)C)NC(=O)[C@@H](NC(=O)[C@H](CO)NC(=O)[C@H](Cc1ccc(O)cc1)NC(=O)[C@H](CC(=O)O)NC(=O)[C@H](CO)NC(=O)[C@@H](NC(=O)[C@](C)(Cc1ccccc1)NC(=O)[C@@H](NC(=O)CNC(=O)[C@H](CCC(=O)O)NC(=O)C(C)(C)NC(=O)[C@@H](N)Cc1ccc(O)cc1)[C@@H](C)O)[C@@H](C)O)[C@@H](C)CC)[C@@H](C)CC)C(=O)N[C@@H](CCC(=O)O)C(=O)NCC(=O)NCC(=O)N1CCC[C@H]1C(=O)N[C@@H](CO)C(=O)N[C@@H](CO)C(=O)NCC(=O)N[C@@H](C)C(=O)N1CCC[C@H]1C(=O)N1CCC[C@H]1C(=O)N1CCC[C@H]1C(=O)N[C@@H](CO)C(N)=O` [Example 143] (H-Y[Aib]EGT[αMeF]TSDYSI[αMeL]LDKK([AEEA-AEEA-γGlu-C20 diacid])AQ[Aib][Aib]FIEYLIEGGPSSGAPPPS-NH2): the figures for the Ki on human Gcg receptor, on human GLP-1R and at human GIP receptor were 65.5 nM, 1.15 nM and 0.0304 nM, respectively. Further, the EC50 in test [1] was 0.0745 nM; in test [2], 0.0515 nM.

`CC[C@H](C)[C@H](NC(=O)[C@H](CC(C)C)NC(=O)[C@H](Cc1ccc(O)cc1)NC(=O)[C@H](CCC(=O)O)NC(=O)[C@@H](NC(=O)[C@H](Cc1ccccc1)NC(=O)C(C)(C)NC(=O)[C@H](Cc1c[nH]cn1)NC(=O)[C@H](CCC(N)=O)NC(=O)[C@H](C)NC(=O)[C@H](CCCCNC(=O)COCCOCCNC(=O)COCCOCCNC(=O)CC[C@H](NC(=O)CCCCCCCCCCCCCCCCCCC(=O)O)C(=O)O)NC(=O)[C@H](CCCCN)NC(=O)[C@H](CC(=O)O)NC(=O)[C@H](CC(C)C)NC(=O)[C@](C)(CC(C)C)NC(=O)[C@@H](NC(=O)[C@H](CO)NC(=O)[C@H](Cc1ccc(O)cc1)NC(=O)[C@H](CC(=O)O)NC(=O)[C@H](CO)NC(=O)[C@@H](NC(=O)[C@](C)(Cc1ccccc1)NC(=O)[C@@H](NC(=O)CNC(=O)[C@H](CCC(=O)O)NC(=O)C(C)(C)NC(=O)[C@@H](N)Cc1ccc(O)cc1)[C@@H](C)O)[C@@H](C)O)[C@@H](C)CC)[C@@H](C)CC)C(=O)N[C@@H](CCC(=O)O)C(=O)NCC(=O)NCC(=O)N1CCC[C@H]1C(=O)N[C@@H](CO)C(=O)N[C@@H](CO)C(=O)NCC(=O)N[C@@H](C)C(=O)N1CCC[C@H]1C(=O)N1CCC[C@H]1C(=O)N1CCC[C@H]1C(=O)N[C@@H](CO)C(N)=O` [Example 144] (H-Y[Aib]EGT[αMeF]TSDYSI[αMeL]LDKK([AEEA-AEEA-γGlu-C20 diacid])AQH[Aib]FIEYLIEGGPSSGAPPPS-NH2): the Ki at human Gcg receptor turned out to be 77 nM; at human GLP-1R, 1.78 nM; on human GIP receptor, 0.0341 nM. Further, the figures for the EC50 in test [1] and in test [2] were 0.0608 nM and 0.0375 nM, respectively.

Values taken from patent publication US12252524B2, “GIP/GLP1 co-agonist compounds” (Eli Lilly and Company, priority 2018, dated 2025).
